Activity calls are given as the source filed them. Rule as the data show it, for most assays here: actives have a measured Kd and inactives only a lower limit.
Columns and labels:
Aurora kinase A = molecular target: T1, Aurora kinase A (Homo sapiens, UniProt O14965)
T1 sequence (O14965 whole entry): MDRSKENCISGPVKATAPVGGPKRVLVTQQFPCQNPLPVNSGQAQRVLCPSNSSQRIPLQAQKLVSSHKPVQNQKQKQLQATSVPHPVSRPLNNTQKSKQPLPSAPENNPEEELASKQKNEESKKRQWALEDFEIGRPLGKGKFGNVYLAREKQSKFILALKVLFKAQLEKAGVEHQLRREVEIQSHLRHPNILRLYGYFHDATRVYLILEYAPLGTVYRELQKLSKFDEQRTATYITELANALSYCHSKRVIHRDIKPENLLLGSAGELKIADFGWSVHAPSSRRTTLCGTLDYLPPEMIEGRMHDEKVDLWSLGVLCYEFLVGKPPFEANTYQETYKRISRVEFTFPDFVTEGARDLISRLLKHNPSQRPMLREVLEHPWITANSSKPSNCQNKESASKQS

[1] = molecular target: Serine/threonine-protein kinase MRCK beta (Homo sapiens, UniProt Q9Y5S2)
Sequence of Serine/threonine-protein kinase MRCK beta (Q9Y5S2 whole entry): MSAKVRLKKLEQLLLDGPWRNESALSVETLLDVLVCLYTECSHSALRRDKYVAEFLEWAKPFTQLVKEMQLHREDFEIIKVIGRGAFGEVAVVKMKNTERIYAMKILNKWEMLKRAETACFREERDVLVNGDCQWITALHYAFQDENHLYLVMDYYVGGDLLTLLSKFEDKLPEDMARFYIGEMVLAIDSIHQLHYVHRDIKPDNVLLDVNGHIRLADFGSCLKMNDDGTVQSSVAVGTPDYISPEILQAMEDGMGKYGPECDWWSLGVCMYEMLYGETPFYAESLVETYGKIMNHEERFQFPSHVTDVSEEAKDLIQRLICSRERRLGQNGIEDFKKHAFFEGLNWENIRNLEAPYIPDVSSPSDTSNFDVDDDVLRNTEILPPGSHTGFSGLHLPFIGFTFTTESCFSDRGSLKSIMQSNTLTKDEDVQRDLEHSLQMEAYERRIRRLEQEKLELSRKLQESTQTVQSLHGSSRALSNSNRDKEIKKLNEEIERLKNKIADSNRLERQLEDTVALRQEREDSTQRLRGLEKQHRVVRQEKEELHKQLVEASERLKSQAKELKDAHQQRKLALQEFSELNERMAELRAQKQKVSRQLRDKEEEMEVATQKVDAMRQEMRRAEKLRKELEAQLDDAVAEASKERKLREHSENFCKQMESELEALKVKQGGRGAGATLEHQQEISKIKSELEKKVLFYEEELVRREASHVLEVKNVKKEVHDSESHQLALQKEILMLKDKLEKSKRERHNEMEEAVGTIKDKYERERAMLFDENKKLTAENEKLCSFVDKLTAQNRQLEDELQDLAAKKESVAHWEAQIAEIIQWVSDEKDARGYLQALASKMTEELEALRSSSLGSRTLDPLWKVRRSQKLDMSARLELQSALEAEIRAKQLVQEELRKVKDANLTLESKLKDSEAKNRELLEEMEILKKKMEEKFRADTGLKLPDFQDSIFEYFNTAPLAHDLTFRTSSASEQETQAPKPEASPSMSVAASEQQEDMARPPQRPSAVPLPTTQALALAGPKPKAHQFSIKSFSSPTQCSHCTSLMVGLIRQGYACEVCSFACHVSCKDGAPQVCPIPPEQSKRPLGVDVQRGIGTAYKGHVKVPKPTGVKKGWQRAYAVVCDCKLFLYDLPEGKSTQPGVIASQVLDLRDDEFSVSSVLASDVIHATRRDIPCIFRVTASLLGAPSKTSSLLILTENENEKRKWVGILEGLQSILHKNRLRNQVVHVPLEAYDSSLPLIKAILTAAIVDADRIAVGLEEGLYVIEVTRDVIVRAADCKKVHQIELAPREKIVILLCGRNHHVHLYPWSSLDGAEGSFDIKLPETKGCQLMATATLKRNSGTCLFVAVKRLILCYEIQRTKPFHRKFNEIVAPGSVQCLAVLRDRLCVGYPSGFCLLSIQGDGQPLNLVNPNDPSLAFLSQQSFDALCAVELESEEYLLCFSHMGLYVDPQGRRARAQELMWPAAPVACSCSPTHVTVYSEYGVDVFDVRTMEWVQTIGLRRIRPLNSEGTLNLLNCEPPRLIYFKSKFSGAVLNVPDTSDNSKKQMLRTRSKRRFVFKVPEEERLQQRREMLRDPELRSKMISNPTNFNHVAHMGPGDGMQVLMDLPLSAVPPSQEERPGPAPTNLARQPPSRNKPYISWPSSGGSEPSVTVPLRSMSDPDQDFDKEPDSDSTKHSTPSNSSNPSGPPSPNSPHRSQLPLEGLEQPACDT

[2] = molecular target: Fibroblast growth factor receptor 1 (Homo sapiens, UniProt P11362)
[3] = molecular target: Putative heat shock protein HSP 90-beta 2 (Homo sapiens, UniProt Q58FF8)
[4] = molecular target: Interleukin-1 receptor-associated kinase 1 (Homo sapiens, UniProt P51617)
Sequence of Interleukin-1 receptor-associated kinase 1 (P51617 whole entry): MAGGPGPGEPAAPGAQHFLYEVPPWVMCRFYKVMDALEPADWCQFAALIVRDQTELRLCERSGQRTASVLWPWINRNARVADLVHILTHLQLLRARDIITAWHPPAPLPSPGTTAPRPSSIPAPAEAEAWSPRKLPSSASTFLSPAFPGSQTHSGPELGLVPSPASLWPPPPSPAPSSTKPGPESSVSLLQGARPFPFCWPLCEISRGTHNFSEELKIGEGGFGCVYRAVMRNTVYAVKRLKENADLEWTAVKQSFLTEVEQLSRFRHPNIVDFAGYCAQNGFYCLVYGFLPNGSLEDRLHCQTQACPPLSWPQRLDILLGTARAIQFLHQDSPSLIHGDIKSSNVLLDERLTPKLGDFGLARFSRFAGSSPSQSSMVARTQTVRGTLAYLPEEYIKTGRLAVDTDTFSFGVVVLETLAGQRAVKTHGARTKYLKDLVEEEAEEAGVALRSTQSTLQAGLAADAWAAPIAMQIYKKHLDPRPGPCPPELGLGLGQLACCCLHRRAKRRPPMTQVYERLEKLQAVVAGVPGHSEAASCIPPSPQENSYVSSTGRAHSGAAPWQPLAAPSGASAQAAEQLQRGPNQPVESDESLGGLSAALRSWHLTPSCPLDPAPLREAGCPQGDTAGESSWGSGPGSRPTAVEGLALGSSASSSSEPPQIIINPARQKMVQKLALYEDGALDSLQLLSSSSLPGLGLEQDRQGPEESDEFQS

[5] = molecular target: T2, Interleukin-1 receptor-associated kinase 4 (Homo sapiens, UniProt Q9NWZ3)
T2 sequence (Q9NWZ3 whole entry): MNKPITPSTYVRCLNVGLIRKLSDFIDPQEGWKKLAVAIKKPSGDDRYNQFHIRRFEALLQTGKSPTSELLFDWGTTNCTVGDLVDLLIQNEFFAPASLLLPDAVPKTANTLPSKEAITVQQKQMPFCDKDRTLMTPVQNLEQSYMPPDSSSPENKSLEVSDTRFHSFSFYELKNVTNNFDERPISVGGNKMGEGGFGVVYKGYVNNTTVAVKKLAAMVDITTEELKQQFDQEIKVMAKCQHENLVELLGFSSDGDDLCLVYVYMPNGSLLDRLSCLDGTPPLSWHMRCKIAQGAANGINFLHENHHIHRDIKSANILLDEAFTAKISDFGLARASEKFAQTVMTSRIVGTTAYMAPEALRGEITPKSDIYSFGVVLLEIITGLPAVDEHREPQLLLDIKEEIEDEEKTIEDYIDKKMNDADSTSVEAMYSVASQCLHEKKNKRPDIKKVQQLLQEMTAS

LIM domain kinase 1 = LIM domain kinase 1 (Homo sapiens, UniProt P53667)
Sequence of LIM domain kinase 1 (P53667 whole entry, the tested form may be a part): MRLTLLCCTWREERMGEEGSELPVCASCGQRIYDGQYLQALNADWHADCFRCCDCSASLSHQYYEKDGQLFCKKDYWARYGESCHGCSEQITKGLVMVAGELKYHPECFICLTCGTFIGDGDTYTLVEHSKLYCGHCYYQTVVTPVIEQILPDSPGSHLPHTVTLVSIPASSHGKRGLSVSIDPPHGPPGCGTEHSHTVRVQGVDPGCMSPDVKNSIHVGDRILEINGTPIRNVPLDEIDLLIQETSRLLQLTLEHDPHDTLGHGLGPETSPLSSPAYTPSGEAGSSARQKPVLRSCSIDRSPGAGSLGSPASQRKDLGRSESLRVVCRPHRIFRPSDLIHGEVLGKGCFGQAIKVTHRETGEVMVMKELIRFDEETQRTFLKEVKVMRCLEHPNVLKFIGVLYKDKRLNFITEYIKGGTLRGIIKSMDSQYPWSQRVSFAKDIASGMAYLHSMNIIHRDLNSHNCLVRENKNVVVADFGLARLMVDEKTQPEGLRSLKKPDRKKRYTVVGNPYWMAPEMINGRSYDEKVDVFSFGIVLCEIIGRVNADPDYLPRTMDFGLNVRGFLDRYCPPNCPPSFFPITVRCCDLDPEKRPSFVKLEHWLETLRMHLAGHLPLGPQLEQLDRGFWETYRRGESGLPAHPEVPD

[6] = molecular target: Dual specificity mitogen-activated protein kinase kinase 2 (Homo sapiens, UniProt P36507)
Sequence of Dual specificity mitogen-activated protein kinase kinase 2 (P36507 whole entry): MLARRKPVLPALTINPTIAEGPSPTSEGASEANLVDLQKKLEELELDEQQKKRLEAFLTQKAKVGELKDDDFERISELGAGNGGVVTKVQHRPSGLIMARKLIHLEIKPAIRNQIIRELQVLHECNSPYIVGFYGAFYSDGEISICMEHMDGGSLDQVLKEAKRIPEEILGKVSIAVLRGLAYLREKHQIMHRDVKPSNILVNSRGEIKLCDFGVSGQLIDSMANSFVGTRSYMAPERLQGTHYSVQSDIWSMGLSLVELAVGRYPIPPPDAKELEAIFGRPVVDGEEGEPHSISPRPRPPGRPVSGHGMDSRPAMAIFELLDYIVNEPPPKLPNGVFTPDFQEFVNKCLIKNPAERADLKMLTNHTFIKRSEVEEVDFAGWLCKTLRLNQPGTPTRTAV

[7] = molecular target: Mitogen-activated protein kinase 11 (Homo sapiens, UniProt Q15759)
Sequence of Mitogen-activated protein kinase 11 (Q15759 whole entry): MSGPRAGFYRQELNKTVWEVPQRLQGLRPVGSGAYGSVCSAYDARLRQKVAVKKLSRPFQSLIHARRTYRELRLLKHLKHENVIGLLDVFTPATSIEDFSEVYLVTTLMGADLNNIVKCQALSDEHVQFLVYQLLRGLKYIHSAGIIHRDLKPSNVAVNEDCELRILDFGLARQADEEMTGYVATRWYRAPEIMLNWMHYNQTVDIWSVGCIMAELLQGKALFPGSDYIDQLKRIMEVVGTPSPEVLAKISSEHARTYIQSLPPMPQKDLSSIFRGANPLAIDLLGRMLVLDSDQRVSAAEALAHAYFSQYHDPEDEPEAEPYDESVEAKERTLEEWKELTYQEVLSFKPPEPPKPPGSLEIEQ

[8] = molecular target: T3, Serine/threonine-protein kinase Nek3 (Homo sapiens, UniProt P51956)
T3 sequence (P51956 whole entry): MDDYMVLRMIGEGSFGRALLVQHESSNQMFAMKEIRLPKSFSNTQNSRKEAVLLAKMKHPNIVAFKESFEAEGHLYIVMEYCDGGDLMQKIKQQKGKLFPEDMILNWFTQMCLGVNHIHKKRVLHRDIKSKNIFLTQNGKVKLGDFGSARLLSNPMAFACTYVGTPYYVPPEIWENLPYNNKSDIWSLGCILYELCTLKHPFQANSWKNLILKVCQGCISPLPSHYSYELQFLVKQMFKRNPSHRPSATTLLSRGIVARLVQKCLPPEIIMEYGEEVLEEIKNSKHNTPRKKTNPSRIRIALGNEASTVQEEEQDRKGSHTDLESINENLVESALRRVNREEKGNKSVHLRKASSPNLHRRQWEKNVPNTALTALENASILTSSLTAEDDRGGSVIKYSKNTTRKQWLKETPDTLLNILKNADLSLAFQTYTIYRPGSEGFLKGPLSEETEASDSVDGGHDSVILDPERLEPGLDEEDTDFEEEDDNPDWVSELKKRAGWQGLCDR

[9] = molecular target: T4, Bifunctional phosphoribosylaminoimidazole carboxylase/phosphoribosylaminoimidazole succinocarboxamide synthetase (Homo sapiens, UniProt P22234)
T4 sequence (P22234 whole entry): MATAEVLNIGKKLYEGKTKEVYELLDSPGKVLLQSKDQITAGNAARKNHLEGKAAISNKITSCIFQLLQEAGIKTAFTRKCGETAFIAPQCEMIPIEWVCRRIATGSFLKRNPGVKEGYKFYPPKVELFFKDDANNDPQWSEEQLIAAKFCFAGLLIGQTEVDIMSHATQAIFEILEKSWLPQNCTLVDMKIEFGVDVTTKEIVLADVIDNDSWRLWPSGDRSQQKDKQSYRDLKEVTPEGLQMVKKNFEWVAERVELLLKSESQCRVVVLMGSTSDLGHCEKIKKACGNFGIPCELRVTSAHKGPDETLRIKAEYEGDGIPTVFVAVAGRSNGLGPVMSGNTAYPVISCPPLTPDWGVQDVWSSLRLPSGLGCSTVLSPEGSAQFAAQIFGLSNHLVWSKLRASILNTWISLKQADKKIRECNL

[10] = molecular target: T5, Ras-related protein Rab-27A (Homo sapiens, UniProt P51159)
T5 sequence (P51159 whole entry): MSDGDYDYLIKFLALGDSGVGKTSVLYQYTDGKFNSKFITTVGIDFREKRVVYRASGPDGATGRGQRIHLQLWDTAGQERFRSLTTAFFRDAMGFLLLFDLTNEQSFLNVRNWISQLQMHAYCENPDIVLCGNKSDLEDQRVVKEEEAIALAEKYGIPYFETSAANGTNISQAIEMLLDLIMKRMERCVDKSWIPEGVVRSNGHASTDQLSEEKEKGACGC

[11] = molecular target: Proto-oncogene tyrosine-protein kinase Src (Homo sapiens, UniProt P12931)
Sequence of Proto-oncogene tyrosine-protein kinase Src (P12931 2-536 limits assumed): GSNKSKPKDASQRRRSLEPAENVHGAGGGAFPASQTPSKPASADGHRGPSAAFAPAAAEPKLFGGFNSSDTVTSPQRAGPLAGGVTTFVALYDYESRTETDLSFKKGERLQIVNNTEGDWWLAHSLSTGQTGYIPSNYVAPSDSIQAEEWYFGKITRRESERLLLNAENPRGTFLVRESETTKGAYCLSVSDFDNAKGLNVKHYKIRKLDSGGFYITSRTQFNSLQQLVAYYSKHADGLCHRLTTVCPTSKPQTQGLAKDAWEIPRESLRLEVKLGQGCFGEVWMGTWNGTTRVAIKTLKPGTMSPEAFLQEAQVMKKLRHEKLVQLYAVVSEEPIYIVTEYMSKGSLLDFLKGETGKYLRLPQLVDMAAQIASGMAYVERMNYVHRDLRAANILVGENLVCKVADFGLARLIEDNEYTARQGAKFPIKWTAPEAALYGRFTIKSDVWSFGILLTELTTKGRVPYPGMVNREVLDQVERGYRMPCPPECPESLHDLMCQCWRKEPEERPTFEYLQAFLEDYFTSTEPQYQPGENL

[12] = molecular target: Tyrosine-protein kinase Yes (Homo sapiens, UniProt P07947)
Sequence of Tyrosine-protein kinase Yes (P07947 whole entry): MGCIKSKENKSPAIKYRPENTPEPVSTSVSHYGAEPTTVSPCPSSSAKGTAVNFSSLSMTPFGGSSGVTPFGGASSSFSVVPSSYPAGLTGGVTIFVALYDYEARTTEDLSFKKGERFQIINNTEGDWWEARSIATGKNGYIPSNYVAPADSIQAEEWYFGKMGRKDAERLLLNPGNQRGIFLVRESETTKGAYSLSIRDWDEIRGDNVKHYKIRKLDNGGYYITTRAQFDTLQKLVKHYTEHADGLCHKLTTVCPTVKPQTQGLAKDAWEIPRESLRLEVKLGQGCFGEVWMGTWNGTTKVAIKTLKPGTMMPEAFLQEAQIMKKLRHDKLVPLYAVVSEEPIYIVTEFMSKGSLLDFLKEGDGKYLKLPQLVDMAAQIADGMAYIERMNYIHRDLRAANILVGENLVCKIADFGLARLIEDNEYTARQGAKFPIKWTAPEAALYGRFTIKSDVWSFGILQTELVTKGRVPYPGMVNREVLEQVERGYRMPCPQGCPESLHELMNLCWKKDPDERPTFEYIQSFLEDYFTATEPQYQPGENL
Also: in the data inactive means no Kd found up to 30 µM.

Structure (SMILES) | Kd (Aurora kinase A) | Kd [1] | Kd [2] | Kd [3] | Kd [4] | Kd [5] | Kd (LIM domain kinase 1) | Kd [6] | Kd [7] | Kd [8] | Kd [9] | Kd [10] | Kd [11] | Kd [12]
C[C@@H](Oc1cc(C(=O)Nc2ccc(C(=O)N3CCN(C)CC3)cc2)nnc1N)c1c(Cl)ccc(F)c1Cl | > 30 µM (inactive) | > 30 µM (inactive) | > 30 µM (inactive) | > 30 µM (inactive) | > 30 µM (inactive) | > 30 µM (inactive) | > 30 µM (inactive) | > 30 µM (inactive) | > 30 µM (inactive) | > 30 µM (inactive) | > 30 µM (inactive) | > 30 µM (inactive) | > 30 µM (inactive) | > 30 µM (inactive)
C[C@H]1CNCCCN1S(=O)(=O)c1cccc2cncc(F)c12 | > 30 µM (inactive) | > 30 µM (inactive) | > 30 µM (inactive) | > 30 µM (inactive) | > 30 µM (inactive) | > 30 µM (inactive) | > 30 µM (inactive) | > 30 µM (inactive) | > 30 µM (inactive) | > 30 µM (inactive) | > 30 µM (inactive) | > 30 µM (inactive) | > 30 µM (inactive) | > 30 µM (inactive)
Nc1ncnc2c1c(-c1cccc(OCc3ccccc3)c1)cn2[C@H]1C[C@@H](CN2CCC2)C1 [AEW-541] | > 30 µM (inactive) | > 30 µM (inactive) | > 30 µM (inactive) | > 30 µM (inactive) | > 30 µM (inactive) | > 30 µM (inactive) | > 30 µM (inactive) | 5.76 µM (active) | > 30 µM (inactive) | > 30 µM (inactive) | > 30 µM (inactive) | > 30 µM (inactive) | 3.55 µM (active) | 0.337 µM (active)
C=CC(=O)Nc1cc2c(Nc3ccc(F)c(Cl)c3)ncnc2cc1C#CC(C)(C)N1CCN(C)CC1 [AV-412 FREE BASE] | > 30 µM (inactive) | > 30 µM (inactive) | > 30 µM (inactive) | > 30 µM (inactive) | > 30 µM (inactive) | > 30 µM (inactive) | > 30 µM (inactive) | > 30 µM (inactive) | > 30 µM (inactive) | > 30 µM (inactive) | > 30 µM (inactive) | > 30 µM (inactive) | > 30 µM (inactive) | 6.27 µM (active)
COc1cc([C@@H]2c3cc4c(cc3[C@H](O)[C@H]3COC(=O)[C@@H]23)OCO4)cc(OC)c1OC [AXL-1717] | > 30 µM (inactive) | > 30 µM (inactive) | > 30 µM (inactive) | > 30 µM (inactive) | > 30 µM (inactive) | > 30 µM (inactive) | > 30 µM (inactive) | > 30 µM (inactive) | > 30 µM (inactive) | > 30 µM (inactive) | > 30 µM (inactive) | > 30 µM (inactive) | > 30 µM (inactive) | > 30 µM (inactive)
Cn1cnc2c(F)c(Nc3ccc(Br)cc3F)c(C(=O)NOCCO)cc21 [BINIMETINIB] | > 30 µM (inactive) | > 30 µM (inactive) | > 30 µM (inactive) | > 30 µM (inactive) | > 30 µM (inactive) | > 30 µM (inactive) | > 30 µM (inactive) | 0.036 µM (active) | > 30 µM (inactive) | > 30 µM (inactive) | > 30 µM (inactive) | > 30 µM (inactive) | > 30 µM (inactive) | > 30 µM (inactive)
CCn1c(C(=O)N(C2CC2)C2CC2)cc2c3c(ncn3C)c(Nc3cc(C)n(C)n3)nc21 [BMS-911543] | > 30 µM (inactive) | > 30 µM (inactive) | > 30 µM (inactive) | > 30 µM (inactive) | > 30 µM (inactive) | > 30 µM (inactive) | > 30 µM (inactive) | > 30 µM (inactive) | > 30 µM (inactive) | > 30 µM (inactive) | > 30 µM (inactive) | > 30 µM (inactive) | > 30 µM (inactive) | > 30 µM (inactive)
COc1cc2ncnc(Oc3cccc(NC(=O)Nc4cc(C(C)(C)C(F)(F)F)on4)c3)c2cc1OC [CEP-32496] | > 30 µM (inactive) | > 30 µM (inactive) | > 30 µM (inactive) | > 30 µM (inactive) | > 30 µM (inactive) | > 30 µM (inactive) | > 30 µM (inactive) | > 30 µM (inactive) | 0.872 µM (active) | > 30 µM (inactive) | > 30 µM (inactive) | > 30 µM (inactive) | > 30 µM (inactive) | > 30 µM (inactive)
Cc1cc(Nc2ncc(Cl)c(Nc3ccccc3S(=O)(=O)C(C)C)n2)c(OC(C)C)cc1C1CCNCC1 [CERITINIB] | > 30 µM (inactive) | > 30 µM (inactive) | > 30 µM (inactive) | > 30 µM (inactive) | > 30 µM (inactive) | > 30 µM (inactive) | > 30 µM (inactive) | > 30 µM (inactive) | > 30 µM (inactive) | > 30 µM (inactive) | > 30 µM (inactive) | > 30 µM (inactive) | > 30 µM (inactive) | > 30 µM (inactive)
COc1c(OCCCN2CCOCC2)ccc2c1N=C(NC(=O)c1cnc(N)nc1)N1CCN=C21 [COPANLISIB] | > 30 µM (inactive) | > 30 µM (inactive) | > 30 µM (inactive) | > 30 µM (inactive) | > 30 µM (inactive) | > 30 µM (inactive) | > 30 µM (inactive) | > 30 µM (inactive) | > 30 µM (inactive) | > 30 µM (inactive) | > 30 µM (inactive) | 4.49 µM | > 30 µM (inactive) | > 30 µM (inactive)
COCC(=O)NC/C=C/c1ccc2ncnc(Nc3ccc(Oc4ccc(C)nc4)c(C)c3)c2c1 [CP-724714] | > 30 µM (inactive) | > 30 µM (inactive) | > 30 µM (inactive) | > 30 µM (inactive) | > 30 µM (inactive) | > 30 µM (inactive) | > 30 µM (inactive) | > 30 µM (inactive) | > 30 µM (inactive) | > 30 µM (inactive) | > 30 µM (inactive) | > 30 µM (inactive) | > 30 µM (inactive) | > 30 µM (inactive)

Source: ChEMBL document CHEMBL3991601, “The target landscape of clinical kinase drugs” (Science, 2017)
